Source: US7968584B2, “Substituted arylpyrazoles” (Pfizer Inc., priority 2005, dated 2011)

The molecules below were run on Ctenocephalides felis (assay: flea membrane feed test). Conditions: Ctenocephalides felis; in vitro, adult cat fleas fed 2 hours through parafilm membrane on citrated dog blood containing compound; percentage killed recorded after overnight storage; dose responses n=5; read-out: Flea feed ED80 results.
Procedure: The flea membrane feed test is used to measure the biological activities of the compounds claimed. The assay involves in vitro testing against Ctenocephalides felis conducted according to the following general procedure.
Fleas are cultured in vitro using dog blood. 25-30 adult Ctenocephalides felis (cat flea) were collected and placed in a test chamber (50 ml polystyrene tube with fine nylon mesh sealing the end). Citrated dog blood was prepared by adding aqueous sodium citrate solution (10 ml, 20% w/v, 20 g sodium citrate in 100 ml water) to dog blood (250 ml). Test compounds were dissolved in dimethylsulfoxide to give a working stock solution of 4 mg/ml. The stock solution (12.5 μl) was added to citrated dog blood (5 ml) to give an initial test concentration of 10 μg/ml. For testing at 30 µg/ml, working stock solutions of 12 mg/ml were prepared.
Citrated dog blood containing the test compound (5 ml, 100 μg/ml) was placed into a plastic Petri dish lid, which was kept at 37° C. on a heated pad. Parafilm was stretched over the open top to form a tight membrane for the fleas to feed through. The test chamber containing the fleas was placed carefully onto the parafilm membrane and the fleas commenced feeding.
The fleas were allowed to feed for 2 hours and the test chambers were then removed and stored overnight at room temperature.
The fleas were observed and the percentage of fleas killed recorded. Compounds were initially tested at 100 μg/ml, wherefrom relevant dose responses (100, 30, 10, 3, 1, 0.3, 0.1 μg/ml) were conducted and repeated n=5. Data was plotted to generate ED80, ED90 & ED95 values.
`CS(=O)(=O)C1(c2c(C#N)nn(-c3c(Cl)cc(S(F)(F)(F)(F)F)cc3Cl)c2N)CC1` [Example 1, 5-amino-1-[2,6-dichloro-4-pentafluorothiophenyl]-4-[1-(methylsulfonyl)cyclopropyl]-1H-pyrazole-3-carbonitrile] showed an EC80 of no more than 1 µg/mL. `N#Cc1nn(-c2c(Cl)cc(C(F)(F)F)cc2Cl)c(N)c1C1(C(N)=O)CC1` [Example 2, 1-{5-amino-3-cyano-1-[2,6-dichloro-4-(trifluoromethyl)phenyl]-1H-pyrazol-4-yl}cyclopropanecarboxamide] was tested, and the EC80 was no more than 1 µg/mL. `N#Cc1nn(-c2c(Cl)cc(S(F)(F)(F)(F)F)cc2Cl)c(NCCF)c1C1(C(N)=O)CC1` [Example 16, 1-{3-cyano-1-[2,6-dichloro-4-pentafluorothiophenyl]-5-[(2-fluoroethyl)amino]-1H-pyrazol-4-yl}cyclopropanecarboxamide] was tested, and the EC80 was no more than 1 µg/mL. For `N#Cc1nn(-c2c(Cl)cc(S(F)(F)(F)(F)F)cc2Cl)c(N)c1C1(C(N)=O)CC1(Cl)Cl` (stereo not shown) [Example 18, 1-{5-amino-3-cyano-1-[2,6-dichloro-4-pentafluorothiophenyl]-1H-pyrazol-4-yl}-2,2-dichlorocyclopropanecarboxamide], the EC80 was no more than 1 µg/mL. `N#Cc1nn(-c2c(Cl)cc(S(F)(F)(F)(F)F)cc2Cl)c(NCC2CC2)c1C1(C(=O)NCc2ccncc2)CC1` [Example 19, 1-{3-cyano-5-[(cyclopropylmethyl)amino]-1-[2,6-dichloro-4-pentafluorothiophenyl]-1H-pyrazol-4-yl}-N-(pyridin-4-ylmethyl)cyclopropanecarboxamide] showed an EC80 of no more than 1 µg/mL. Work on `CC(C)OC(=O)Nc1c(C2(C(N)=O)CC2)c(C#N)nn1-c1c(Cl)cc(S(F)(F)(F)(F)F)cc1Cl` [Example 20, isopropyl {4-[1-(aminocarbonyl)cyclopropyl]-3-cyano-1-[2,6-dichloro-4-pentafluorothiophenyl]-1H-pyrazol-5-yl}carbamate] yielded an EC80 of no more than 1 µg/mL. In the case of `N#Cc1nn(-c2c(Cl)cc(S(F)(F)(F)(F)F)cc2Cl)c(NC(=O)OCC2(CF)CC2)c1C1(C(N)=O)CC1` [Example 27, [1-(fluoromethyl)cyclopropyl]methyl {4-[1-(aminocarbonyl)cyclopropyl]-3-cyano-1-[2,6-dichloro-4-pentafluorothiophenyl]-1H-pyrazol-5-yl}carbamate], the EC80 was no more than 1 µg/mL. `CCOC(=O)Nc1c(C2(C(N)=O)CC2)c(C#N)nn1-c1c(Cl)cc(OC(F)(F)F)cc1Cl` [Example 37, ethyl {4-[1-(aminocarbonyl)cyclopropyl]-3-cyano-1-[2,6-dichloro-4-(trifluoromethoxy)phenyl]-1H-pyrazol-5-yl}carbamate] showed an EC80 of no more than 1 µg/mL. Molecule `N#Cc1nn(-c2c(Cl)cc(S(F)(F)(F)(F)F)cc2Cl)c(Cl)c1C1(C(N)=O)CC1` [Example 86, 1-{5-chloro-3-cyano-1-[2,6-dichloro-4-pentafluorothiophenyl]-1H-pyrazol-4-yl}cyclopropanecarboxamide] has an EC80 of no more than 1 µg/mL.

Same assay, conditions: in vitro, adult cat fleas fed 2 hours through parafilm membrane on citrated dog blood containing compound; percentage killed recorded after overnight storage; dose responses n=5
In the case of `N#Cc1nn(-c2c(Cl)cc(S(F)(F)(F)(F)F)cc2Cl)c(N)c1C1(C#N)CC1` [Example 11, 5-amino-4-(1-cyanocyclopropyl)-1-[2,6-dichloro-4-pentafluorothiophenyl]-1H-pyrazole-3-carbonitrile], the “Flea feed ED80 results” value was “≦1 μg/ml”. In the case of `N#Cc1nn(-c2c(Cl)cc(S(F)(F)(F)(F)F)cc2Cl)c(NCCC(N)=O)c1C1(C(N)=O)CC1` [Example 32, N˜3˜-{4-[1-(aminocarbonyl)cyclopropyl]-3-cyano-1-[2,6-dichloro-4-pentafluorothiophenyl]-1H-pyrazol-5-yl}-beta-alaninamide], the “Flea feed ED80 results” value was “≦1 μg/ml”. `N#Cc1nn(-c2c(Cl)cc(S(F)(F)(F)(F)F)cc2Cl)c(NCC2CC2)c1C1(C(=O)NCc2ccccn2)CC1` [Example 45, 1-{3-cyano-5-[(cyclopropylmethyl)amino]-1-[2,6-dichloro-4-pentafluorothiophenyl]-1H-pyrazol-4-yl}-N-(pyridin-2-ylmethyl)cyclopropanecarboxamide] was tested, and the “Flea feed ED80 results” value was “≦1 μg/ml”. In the case of `N#Cc1nn(-c2c(Cl)cc(S(F)(F)(F)(F)F)cc2Cl)c(CNC(=O)OCC2CC2)c1C1(C(N)=O)CC1` [Example 101, cyclopropylmethyl {4-[1-(aminocarbonyl)cyclopropyl]-3-cyano-1-[2,6-dichloro-4-pentafluorothiophenyl]-1H-pyrazol-5-yl}methylcarbamate], the “Flea feed ED80 results” value was “≦1 μg/ml”.
